Assay results published in the OligoGym collection.
HELM strings list units from the 5' end as sugar, base in round brackets, then linkage (d deoxyribose, r ribose, m 2'-O-methyl, p phosphodiester). Strings are as the collection lists them, not checked against the first reports. ss, as = sense and antisense strand; [una] = unlocked nucleic acid; [s4r] = 4'-thioribose; [fl2r] = 2'-fluoro

Conditions: siRNA
Also: test system not given here.

Substance	target mRNA knockdown [%]
RNA1{[fl2r](C)p.r(C)p.[fl2r](G)p.r(A)p.[fl2r](A)p.r(G)p.[fl2r](A)p.r(C)p.[fl2r](G)p.r(A)p.[fl2r](A)p.r(G)p.[fl2r](C)p.r(U)p.[fl2r](A)p.r(U)p.[fl2r](G)p.r(A)p.[fl2r](A)p.r(T)p.r(T)}|RNA2{r(U)p.r(U)p.r(C)p.r(A)p.r(U)p.r(A)p.[fl2r](G)p.r(C)p.r(U)p.r(U)p.r(C)p.[fl2r](G)p.r(U)p.r(C)p.r(U)p.r(U)p.r(C)p.[fl2r](G)p.[fl2r](G)p.r(T)p.r(T)}$$$RNA1{StrandType:ss}|RNA2{StrandType:as}$	23
RNA1{r(G)p.r(A)p.r(A)p.r(G)p.r(G)p.r(G)p.r(G)p.r(A)p.r(A)p.r(A)p.r(U)p.m(C)p.r(U)p.r(G)p.r(U)p.r(G)p.r(G)p.r(U)p.r(U)p.r(T)p.r(T)}|RNA2{r(A)p.r(A)p.r(C)p.m(C)p.r(A)p.r(C)p.r(A)p.r(G)p.r(A)p.r(U)p.r(U)p.r(U)p.r(C)p.r(C)p.r(C)p.r(C)p.r(U)p.r(U)p.r(C)p.r(T)p.r(T)}$$$RNA1{StrandType:ss}|RNA2{StrandType:as}$	65
RNA1{[s4r](C)p.[s4r](G)p.[s4r](U)p.[s4r](A)p.r(C)p.r(G)p.r(C)p.r(G)p.r(G)p.r(A)p.r(A)p.r(U)p.r(A)p.r(C)p.r(U)p.[s4r](U)p.[s4r](C)p.[s4r](G)p.[s4r](A)p.r(T)p.r(T)}|RNA2{[s4r](U)p.[s4r](C)p.r(G)p.r(A)p.r(A)p.r(G)p.r(U)p.r(A)p.r(U)p.r(U)p.r(C)p.r(C)p.r(G)p.r(C)p.r(G)p.r(U)p.r(A)p.[s4r](C)p.[s4r](G)p.r(T)p.r(T)}$$$RNA1{StrandType:ss}|RNA2{StrandType:as}$	87.7
RNA1{r(G)p.m(U)p.r(A)p.r(U)p.r(C)p.r(C)p.r(G)p.r(A)p.r(A)p.m(G)p.m(A)p.r(C)p.r(G)p.r(A)p.r(A)p.r(G)p.r(C)p.m(U)p.r(A)p.r(T)p.r(T)}|RNA2{m(U)p.r(A)p.r(G)p.r(C)p.r(U)p.r(U)p.r(C)p.r(G)p.r(U)p.r(C)p.r(U)p.r(U)p.r(C)p.r(G)p.r(G)p.r(A)p.m(U)p.r(A)p.r(C)p.r(T)p.r(T)}$$$RNA1{StrandType:ss}|RNA2{StrandType:as}$	92
RNA1{m(C)p.r(G)p.m(C)p.r(C)p.m(C)p.r(C)p.m(C)p.r(C)p.m(U)p.r(C)p.m(A)p.r(A)p.m(G)p.r(C)p.m(U)p.r(A)p.m(C)p.r(C)p.m(G)p.r(T)p.r(T)}|RNA2{r(C)p.r(G)p.r(G)p.r(U)p.r(A)p.r(G)p.r(C)p.r(U)p.r(U)p.r(G)p.r(A)p.r(G)p.r(G)p.r(G)p.r(G)p.r(G)p.r(G)p.r(C)p.r(G)p.r(T)p.r(T)}$$$RNA1{StrandType:ss}|RNA2{StrandType:as}$	44
RNA1{r(A)p.r(A)p.r(C)p.r(C)p.r(C)p.r(A)p.r(C)p.r(C)p.r(A)p.r(C)p.r(A)p.r(G)p.r(C)p.m(U)p.r(A)p.r(G)p.r(A)p.r(A)p.r(C)p.m(U)p.m(U)}|RNA2{r(A)p.r(A)p.r(G)p.r(U)p.r(U)p.r(C)p.r(U)p.r(A)p.r(G)p.r(C)p.r(U)p.r(G)p.r(U)p.r(G)p.r(G)p.r(U)p.r(G)p.r(G)p.r(G)p.r(U)p.r(U)}$$$RNA1{StrandType:ss}|RNA2{StrandType:as}$	81
RNA1{r(G)p.r(U)p.r(A)p.r(U)p.r(G)p.r(A)p.r(C)p.r(C)p.r(G)p.r(A)p.r(C)p.r(U)p.r(A)p.r(C)p.r(G)p.r(C)p.r(G)p.r(U)p.r(A)p.r(T)p.r(T)}|RNA2{r(U)p.r(U)p.r(C)p.r(A)p.r(G)p.r(U)p.r(G)p.r(U)p.r(G)p.r(A)p.r(U)p.r(G)p.r(A)p.[una](C)p.r(A)p.r(C)p.r(U)p.r(U)p.r(G)p.r(T)p.r(T)}$$$RNA1{StrandType:ss}|RNA2{StrandType:as}$	64
RNA1{r(G)p.r(G)p.r(G)p.r(A)p.r(G)p.r(G)p.r(U)p.r(C)p.r(U)p.r(U)p.r(A)p.r(G)p.r(A)p.r(A)p.r(A)p.r(A)p.r(C)p.r(A)p.r(C)p.r(T)p.r(T)}|RNA2{r(G)p.r(U)p.r(G)p.r(U)p.r(U)p.r(U)p.r(U)p.r(C)p.m(U)p.r(A)p.r(A)p.r(G)p.r(A)p.r(C)p.r(C)p.r(U)p.r(C)p.r(C)p.r(C)p.r(T)p.r(T)}$$$RNA1{StrandType:ss}|RNA2{StrandType:as}$	82
RNA1{[fl2r](U)p.r(C)p.[fl2r](C)p.r(G)p.[fl2r](G)p.r(C)p.[fl2r](U)p.r(A)p.[fl2r](A)p.r(C)p.[fl2r](U)p.r(C)p.[fl2r](U)p.r(G)p.[fl2r](A)p.r(G)p.[fl2r](G)p.r(A)p.[fl2r](C)p.r(T)p.r(T)}|RNA2{r(G)p.r(U)p.r(C)p.r(C)p.r(U)p.r(C)p.r(A)p.r(G)p.r(A)p.r(G)p.r(U)p.r(U)p.r(A)p.r(G)p.r(C)p.r(C)p.r(G)p.r(G)p.r(A)p.r(T)p.r(T)}$$$RNA1{StrandType:ss}|RNA2{StrandType:as}$	41
RNA1{r(A)p.[fl2r](A)p.r(G)p.r(G)p.r(C)p.[fl2r](C)p.r(A)p.r(A)p.r(C)p.r(C)p.r(G)p.r(A)p.[fl2r](U)p.r(A)p.r(C)p.r(U)p.r(U)p.r(C)p.r(U)p.r(T)p.r(T)}|RNA2{r(A)p.r(G)p.r(A)p.r(A)p.r(G)p.[fl2r](U)p.r(A)p.r(U)p.r(C)p.r(G)p.r(G)p.r(U)p.[fl2r](U)p.r(G)p.r(G)p.r(C)p.r(C)p.r(U)p.r(U)p.r(T)p.r(T)}$$$RNA1{StrandType:ss}|RNA2{StrandType:as}$	68
RNA1{r(A)p.r(A)p.m(C)p.r(U)p.m(C)p.r(U)p.r(A)p.m(C)p.r(U)p.r(G)p.r(U)p.r(G)p.r(G)p.r(A)p.r(G)p.r(U)p.m(C)p.r(G)p.r(G)p.r(T)p.r(T)}|RNA2{m(C)p.m(C)p.r(G)p.r(A)p.m(C)p.r(U)p.m(C)p.m(C)p.r(A)p.m(C)p.r(A)p.r(G)p.r(U)p.r(A)p.r(G)p.r(A)p.r(G)p.r(U)p.r(U)p.r(T)p.r(T)}$$$RNA1{StrandType:ss}|RNA2{StrandType:as}$	57
RNA1{m(C)p.r(C)p.m(G)p.r(C)p.m(C)p.r(C)p.m(G)p.r(G)p.m(C)p.r(G)p.m(G)p.r(C)p.m(G)p.r(C)p.m(C)p.r(U)p.m(U)p.r(U)p.m(A)p.r(T)p.r(T)}|RNA2{r(U)p.r(A)p.r(A)p.r(A)p.r(G)p.r(G)p.r(C)p.r(G)p.r(C)p.r(C)p.r(G)p.r(C)p.r(C)p.r(G)p.r(G)p.r(G)p.r(C)p.r(G)p.r(G)p.r(T)p.r(T)}$$$RNA1{StrandType:ss}|RNA2{StrandType:as}$	49
RNA1{r(C)p.r(C)p.r(C)p.r(U)p.r(C)p.r(C)p.r(C)p.r(C)p.[fl2r](U)p.r(G)p.r(U)p.r(C)p.r(C)p.r(C)p.r(C)p.r(G)p.r(C)p.r(U)p.r(U)p.r(T)p.r(T)}|RNA2{r(A)p.r(A)p.r(G)p.r(C)p.r(G)p.r(G)p.r(G)p.r(G)p.r(A)p.r(C)p.r(A)p.r(G)p.r(G)p.r(G)p.r(G)p.r(A)p.r(G)p.r(G)p.r(G)p.r(T)p.r(T)}$$$RNA1{StrandType:ss}|RNA2{StrandType:as}$	73
RNA1{r(A)p.r(G)p.r(A)p.r(G)p.r(A)p.r(G)p.r(G)p.[fl2r](U)p.r(G)p.r(G)p.r(A)p.r(G)p.r(G)p.[fl2r](U)p.r(A)p.r(U)p.r(C)p.[fl2r](U)p.r(C)p.r(T)p.r(T)}|RNA2{r(G)p.r(A)p.r(G)p.r(A)p.[fl2r](U)p.r(A)p.r(C)p.r(C)p.r(U)p.r(C)p.[fl2r](C)p.[fl2r](A)p.r(C)p.r(C)p.r(U)p.r(C)p.r(U)p.r(C)p.r(U)p.r(T)p.r(T)}$$$RNA1{StrandType:ss}|RNA2{StrandType:as}$	85
RNA1{[s4r](C)p.[s4r](G)p.[s4r](U)p.[s4r](A)p.[s4r](C)p.[s4r](G)p.r(C)p.r(G)p.r(G)p.r(A)p.r(A)p.r(U)p.r(A)p.[s4r](C)p.[s4r](U)p.[s4r](U)p.[s4r](C)p.[s4r](G)p.[s4r](A)p.r(T)p.r(T)}|RNA2{r(U)p.r(C)p.r(G)p.r(A)p.r(A)p.r(G)p.r(U)p.r(A)p.r(U)p.r(U)p.r(C)p.r(C)p.r(G)p.r(C)p.r(G)p.[s4r](U)p.[s4r](A)p.[s4r](C)p.[s4r](G)p.r(T)p.r(T)}$$$RNA1{StrandType:ss}|RNA2{StrandType:as}$	44.4
RNA1{r(C)p.r(G)p.r(U)p.r(A)p.r(C)p.r(G)p.r(C)p.r(G)p.r(G)p.r(A)p.r(A)p.r(U)p.r(A)p.m(C)p.m(U)p.m(U)p.m(C)p.m(G)p.m(A)p.r(T)p.r(T)}|RNA2{r(U)p.r(C)p.r(G)p.r(A)p.r(A)p.r(G)p.r(U)p.r(A)p.r(U)p.r(U)p.r(C)p.r(C)p.r(G)p.r(C)p.r(G)p.r(U)p.r(A)p.r(C)p.r(G)p.r(T)p.r(T)}$$$RNA1{StrandType:ss}|RNA2{StrandType:as}$	94.2
RNA1{r(G)p.r(G)p.r(G)p.r(A)p.r(A)p.r(A)p.[fl2r](C)p.[fl2r](U)p.r(G)p.r(A)p.r(A)p.r(A)p.r(G)p.r(G)p.[fl2r](C)p.[fl2r](U)p.r(A)p.[fl2r](U)p.r(G)p.r(T)p.r(T)}|RNA2{r(C)p.r(A)p.r(U)p.r(A)p.r(G)p.r(C)p.r(C)p.r(U)p.r(U)p.r(U)p.r(C)p.r(A)p.r(G)p.r(U)p.r(U)p.r(U)p.r(C)p.r(C)p.r(C)p.r(T)p.r(T)}$$$RNA1{StrandType:ss}|RNA2{StrandType:as}$	51
RNA1{r(G)p.r(G)p.r(C)p.r(C)p.r(U)p.r(U)p.r(U)p.r(C)p.r(U)p.r(C)p.r(U)p.r(C)p.r(U)p.r(A)p.r(G)p.r(A)p.r(U)p.r(A)p.r(U)p.r(T)p.r(T)}|RNA2{r(A)p.m(U)p.r(A)p.r(U)p.r(C)p.m(U)p.r(A)p.r(G)p.r(A)p.r(G)p.r(A)p.r(G)p.r(A)p.r(A)p.r(A)p.r(G)p.r(G)p.r(C)p.r(C)p.r(T)p.r(T)}$$$RNA1{StrandType:ss}|RNA2{StrandType:as}$	90
RNA1{r(G)p.r(C)p.r(A)p.r(A)p.r(G)p.r(U)p.r(G)p.r(G)p.r(C)p.r(A)p.r(A)p.r(G)p.r(A)p.r(G)p.r(G)p.r(A)p.r(U)p.m(U)p.r(A)p.r(T)p.r(T)}|RNA2{m(U)p.r(A)p.r(A)p.r(U)p.r(C)p.r(C)p.r(U)p.r(C)p.r(U)p.r(U)p.r(G)p.r(C)p.r(C)p.r(A)p.r(C)p.r(U)p.r(U)p.r(G)p.r(C)p.r(T)p.r(T)}$$$RNA1{StrandType:ss}|RNA2{StrandType:as}$	69
RNA1{r(A)p.r(G)p.r(A)p.r(G)p.r(A)p.r(G)p.r(G)p.r(U)p.r(G)p.r(G)p.r(A)p.r(G)p.r(G)p.m(U)p.r(A)p.r(U)p.r(C)p.r(U)p.r(C)p.r(T)p.r(T)}|RNA2{r(G)p.r(A)p.r(G)p.r(A)p.m(U)p.r(A)p.r(C)p.r(C)p.r(U)p.r(C)p.r(C)p.r(A)p.r(C)p.r(C)p.r(U)p.r(C)p.r(U)p.r(C)p.r(U)p.r(T)p.r(T)}$$$RNA1{StrandType:ss}|RNA2{StrandType:as}$	90
